Results as given in article PMC12040169 (PLOS Biology, 2025).

Experiment: in vitro
Conditions: human, hela cells, % viability

| Compound | viability at 28.5 h, 10 µM [%] |
| --- | --- |
| COc1cc(C(C)=O)ccc1OCCCCN1CCOCC1 [CBK269713C] | 98.2 |
| C=CCOc1ccccc1OCCCN1CCN(C)CC1 [CBK269714C] | 95.6 |
| Cc1cccc(C)c1OCc1nnc(SCC(=O)c2ccc(F)cc2)n1C [CBK269715] | 91.2 |
| CC(C)(C)C(=O)NC(=S)Nc1ccc(Cc2ccncc2)cc1 [CBK269717] | 91.5 |
| Cc1ccc(C)c(OCCNCc2ccco2)c1Cl [CBK269718C] | 98.3 |
| Cc1ccccc1NC(=O)Cc1nnc(SCC(=O)c2ccccc2)n1C [CBK269719] | 101 |
| Clc1ccc(Cl)c(-c2ccc(CNCc3cccnc3)o2)c1 [CBK269720C] | 103 |
| O=C(Nc1ccc(NC(=O)c2cc(O)nc3ccccc23)cc1)c1ccccc1 [CBK269722] | 106 |
| Cc1ccc(S(=O)(=O)N2CCOCC2)cc1C(=O)Oc1cccc2cccnc12 [CBK269726] | 98 |
| Cc1cccc(OCC(=O)Nc2sc3c(c2C(N)=O)CCC3)c1C [CBK269729] | 94.8 |
| Cc1cc(OC(C)C(=O)Nc2nnc[nH]2)ccc1Cl (stereo not drawn) [CBK269731] | 87 |
| Cn1c(SCc2ccc([N+](=O)[O-])cc2)nnc1C(O)c1ccccc1 (stereo not drawn) [CBK269735] | 88.6 |
| COc1ccc(C(=O)Nc2ccc(CC(=O)O)cc2)cc1 [CBK269736] | 95 |
| Cc1cccc(C)c1OCc1nnc(SCc2ccc([N+](=O)[O-])cc2)n1C [CBK269737] | 105 |
| Cc1nnc(SCc2nnc(-c3ccccc3)o2)n1Cc1ccccc1 [CBK269743] | 92.2 |
| CS(=O)(=O)Nc1ccccc1C(=O)NCCCN1CCOCC1 [CBK269745] | 112 |
| O=C(Nc1cccc(O)c1)c1ccc(NC(=O)C2CCCO2)cc1 (stereo not drawn) [CBK269746] | 91.6 |
| CSc1ccccc1C(=O)NCCCn1ccnc1 [CBK269749] | 85.3 |
| COc1cc(CN2CCNC(=O)C2CC(=O)O)cc(OC)c1 (stereo not drawn) [CBK269752] | 105 |
| O=C(NCc1cccnc1)c1ccccc1NS(=O)(=O)c1ccc(F)cc1 [CBK269754] | 70.8 |
| O=C(O)Cn1nnc(-c2ccc(OCc3ccccc3)cc2)n1 [CBK269755] | 85.1 |
| CSc1ccccc1C(=O)NCCN(C)C [CBK269757] | 90.9 |
| N#Cc1ccc(NC(=O)c2ccc(-n3cnnc3)cc2Cl)cc1 [CBK269758] | 87.2 |
| Cn1c(=O)c2[nH]c(N3CCN(c4cccc(O)c4)CC3)nc2n(C)c1=O [CBK269760] | 104 |

| Compound | viability at 28.5 h, 10 µM [%] |
| --- | --- |
| COc1ccc(Cl)cc1S(=O)(=O)N1CCCC(C(=O)NCc2ccccn2)C1 (stereo not drawn) [CBK269761] | 96.7 |
| COCCCn1c(C)c(C)n2c3c(=O)n(CCN4CCCCC4)c(=O)n(C)c3nc12 [CBK269762] | 102 |
| COc1ccc(C(=O)Nc2ccccc2N2CCN(C)CC2)c(OC)c1 [CBK269763] | 90.4 |
| CCN(CC)CCn1c2ccc(C)cc2c2nc(C)sc21 [CBK269764C] | 99.7 |
| CCn1c(SCC(=O)Nc2ccc(N3CCOCC3)cc2)nnc1-c1ccncc1 [CBK269765] | 89.7 |
| COc1ccc(OC)c(NC(=O)C(C)Oc2ccccc2OC)c1 (stereo not drawn) [CBK269766] | 85.3 |
| COc1cc(CNc2nc[nH]n2)ccc1OCc1ccc(C)cc1 [CBK269768] | 113 |
| O=C(Nc1ccccc1C(=O)O)c1cccc(-n2cnnc2)c1 [CBK269769] | 85.4 |
| C=CCOc1ccc(-c2nnn(CC(=O)O)n2)cc1 [CBK269772] | 87.8 |
| Cc1cccc(-c2nc3ccc(NC(=O)CCC(=O)O)cc3o2)c1 [CBK269773] | 95.1 |
| CC(=O)N1CCN(c2ccccc2NC(=O)c2ccc(OCc3ccccc3)cc2)CC1 [CBK269775] | 103 |
| C=CCn1c(C)c(C)n2c3c(=O)n(CCN4CCOCC4)c(=O)n(C)c3nc12 [CBK269778] | 90.8 |
| CS(=O)(=O)Nc1ccc(C(=O)NCCN2CCOCC2)cc1 [CBK269781] | 93.2 |
| COc1ccc(OCc2nc(-c3cccs3)no2)cc1 [CBK269782] | 91.7 |
| COc1ccc(-c2noc(CNC(=O)Nc3ccc(F)cc3)n2)cc1OC [CBK269784] | 97.2 |
| CN(C)S(=O)(=O)N1CCN(c2ccnc3cc(Cl)ccc23)CC1 [CBK269785] | 99.2 |
| CCCOc1ccc(C(=O)NCc2ccccn2)cc1 [CBK269789] | 93.9 |
| Cc1ccccc1CSCC(=O)Nc1c[nH]c(=O)[nH]c1=O [CBK269790] | 86.8 |
| CCOC(=O)CC1C(=O)NCCN1C/C=C\c1ccccc1OC (stereo not drawn) [CBK269791] | 94.3 |
| COc1ccc(S(=O)(=O)NCCCN2CCOCC2)c(Cl)c1Cl [CBK269792] | 95.3 |
| O=C1c2ccccc2C(=O)N1CCc1nn2c(-c3cccnc3)nnc2s1 [CBK269793] | 97.9 |
| Cn1c(=O)c2[nH]c(NCCc3ccc(Cl)cc3)nc2n(C)c1=O [CBK269794] | 92 |
| COc1cccc(CNCC2CCCO2)c1OCc1ccccc1 (stereo not drawn) [CBK269798C] | 105 |
| Cc1ccc(S(=O)(=O)CC(=O)Nc2ncccn2)cc1 [CBK269800] | 97.3 |

| Compound | viability at 28.5 h, 10 µM [%] |
| --- | --- |
| CS(=O)(=O)N1CCC(C(=O)NC(c2ccccc2)c2ccccc2)CC1 [CBK269801] | 77.8 |
| Cc1ccc(OC(C)C(=O)Nc2ccccc2C(=O)N2CCN(C)CC2)cc1 (stereo not drawn) [CBK269802] | 88.6 |
| COc1cc(C(=O)Nc2ccccc2C(=O)N2CCN(C)CC2)cc(OC)c1OC [CBK269803] | 88.5 |
| O=C(O)c1cc(NC/C=C/c2ccccc2)ccc1N1CCOCC1 [CBK269806] | 106 |
| O=C1Nc2ccccc2Oc2ccc(S(=O)(=O)N3CCOCC3)cc21 [CBK269807] | 75.5 |
| O=c1c2c3c(sc2ncn1Cc1nn[nH]n1)CCCC3 [CBK269808] | 83.9 |
| O=C(c1cccc(-c2nnc(-c3ccccc3)o2)c1)N1CCN(C(=O)c2ccco2)CC1 [CBK269809] | 78.5 |
| Cc1cc(C)n(-c2nc(NC(C)(C)C)nc(N3CCOCC3)n2)n1 [CBK269810] | 85.5 |
| CC(=O)C(Sc1nc(NC(C)C)nc(N(C)C)n1)C(C)=O [CBK269811] | 90.8 |
| COc1ccc(Cl)cc1-c1noc(Cn2nc(C)c(Cl)c2C)n1 [CBK269813] | 92.1 |
| O=C(O)c1cc(NC(=O)C2CCCO2)ccc1O (stereo not drawn) [CBK269815] | 99 |
| Cc1ccc(CNC(=O)COc2ccc(S(=O)(=O)N3CCOCC3)cc2)cc1 [CBK269816] | 87.8 |
| Cn1cccc1CNCc1ccccn1 [CBK269818C] | 96 |
| NS(=O)(=O)c1ccc(CCNCc2ccc3c(c2)OCO3)cc1 [CBK269819C] | 88.5 |
| Cc1cn2c3c(=O)n(CCN4CCCCC4)c(=O)n(C)c3nc2n1CC1CCCO1 (stereo not drawn) [CBK269820] | 91.9 |
| CCOC(=O)C1CCN(S(=O)(=O)c2ccc(NC(=O)N3CCCC3)cc2)CC1 [CBK269823] | 100 |
| OCCC1CNCCN1Cc1ccc(F)c(F)c1 (stereo not drawn) [CBK269824] | 85.6 |
| CSc1nsc(SCC(=O)Nc2ccccc2C#N)n1 [CBK269826] | 95.1 |
| CS(=O)(=O)Nc1ccc(C(=O)N2CC(=O)Nc3ccccc32)cc1 [CBK269827] | 90.8 |
| COc1cc(C)nc(NC(=O)Nc2cccc(Cl)c2)n1 [CBK269828] | 94.2 |
| CC(=O)c1c(C)nn(CCC(=O)Nc2ccc(Cl)c(Cl)c2)c1C [CBK269829] | 99.3 |
| O=C(Nc1ccccc1)N(Cc1nc(-c2ccccc2)no1)C1CCCCC1 [CBK269830] | 93.2 |
| O=C(O)CSc1nc2ccccc2n2cnnc12 [CBK269831] | 92.8 |
| CSc1nsc(SCC(=O)Nc2cccc(NC(C)=O)c2)n1 [CBK269833] | 93.2 |

| Compound | viability at 28.5 h, 10 µM [%] |
| --- | --- |
| Cc1cc(CNC(=O)c2cc3ccccc3oc2=O)c2ccccc2n1 [CBK269834] | 94.2 |
| COc1ccc(Cl)cc1S(=O)(=O)N1CCC(C(=O)NCCCO)CC1 [CBK269835] | 99 |
| COc1ccc(S(=O)(=O)NCCN2CCOCC2)cc1Br [CBK269838] | 91.4 |
| COc1nc2ccccc2nc1CCc1nc(-c2ccccc2)no1 [CBK269840] | 86 |
| c1ccc2c(c1)nc(N1CCOCC1)n2CCN1CCOCC1 [CBK269841] | 99.6 |
| Cc1ccc(CN2CCNCC2CCO)o1 (stereo not drawn) [CBK269844] | 92.3 |
| O=C(Nc1cccnc1)c1cccc(S(=O)(=O)N2CCCC2)c1 [CBK269846] | 93.3 |
| CCNC(=O)N1C(CC(=O)Nc2cccc(OC)c2)C(=O)NC2CCCCC21 (stereo not drawn) [CBK269848] | 90.6 |
| COc1ccccc1CNCCc1ccc(S(N)(=O)=O)cc1 [CBK269852C] | 99.7 |
| COc1ccc(Cl)cc1C(=O)Nc1cnn(CCCC(=O)O)c1 [CBK269855] | 80.7 |
| O=C(CCC1COc2ccccc2O1)Nc1ccc(C(=O)O)cc1 (stereo not drawn) [CBK269856] | 89.7 |
| C=CCN(Cc1nc(-c2ccccc2)no1)C(=O)Nc1ccc(C)cc1 [CBK269859] | 103 |
| COc1cc(CNCCc2c[nH]c3ccccc23)cc(Cl)c1OC [CBK269861C] | 88.5 |
| N#Cc1ccccc1Cn1cc(C(=O)C(N)=O)c2ccccc21 [CBK269862] | 93.5 |
| CC(C)N(Cc1nc(-c2ccccc2)no1)C(=O)Nc1cccc(Cl)c1 [CBK269871] | 93.5 |
| Cc1ccc(NC(=O)CSc2nnc(-c3cnccn3)s2)cc1 [CBK269872] | 83.3 |
| COc1cc2c(cc1OC)C(C)N(C(=O)CCC(=O)O)CC2 (stereo not drawn) [CBK269873] | 92.5 |
| CCOc1cc(S(=O)(=O)NCCCn2ccnc2)ccc1Cl [CBK269874] | 89 |
| Cc1ccnc(SCc2cc(=O)c3c(=O)n(-c4ccccc4)[nH]c3[nH]2)n1 [CBK269875] | 110 |
| COc1ccc(Cl)cc1S(=O)(=O)N1CCC(C(=O)NCc2cccnc2)CC1 [CBK269878] | 93.4 |
| COc1cccc(C(=O)Nc2cnn(CCCC(=O)O)c2)c1 [CBK269879] | 89.6 |
